Experimental data reported in patent US7741493B2, “Heterocyclic compounds as P2X7 ion channel blockers” (Aventis Pharmaceuticals Inc., priority 2003, dated 2010).
Counter-ions that a name gives are not always drawn.

The molecules below were run against T1, P2X7 (Homo sapiens, UniProt Q99572) (assay: YO-PRO-1 dye uptake assay in U373 cells stably expressing P2X7). Conditions: dye uptake through P2X7, U373 cells, 300 μM BzATP, 5 μM YO-PRO-1, test compounds 30 nM to 3 μM; read-out: IC50.
T1 sequence (Q99572 1-595): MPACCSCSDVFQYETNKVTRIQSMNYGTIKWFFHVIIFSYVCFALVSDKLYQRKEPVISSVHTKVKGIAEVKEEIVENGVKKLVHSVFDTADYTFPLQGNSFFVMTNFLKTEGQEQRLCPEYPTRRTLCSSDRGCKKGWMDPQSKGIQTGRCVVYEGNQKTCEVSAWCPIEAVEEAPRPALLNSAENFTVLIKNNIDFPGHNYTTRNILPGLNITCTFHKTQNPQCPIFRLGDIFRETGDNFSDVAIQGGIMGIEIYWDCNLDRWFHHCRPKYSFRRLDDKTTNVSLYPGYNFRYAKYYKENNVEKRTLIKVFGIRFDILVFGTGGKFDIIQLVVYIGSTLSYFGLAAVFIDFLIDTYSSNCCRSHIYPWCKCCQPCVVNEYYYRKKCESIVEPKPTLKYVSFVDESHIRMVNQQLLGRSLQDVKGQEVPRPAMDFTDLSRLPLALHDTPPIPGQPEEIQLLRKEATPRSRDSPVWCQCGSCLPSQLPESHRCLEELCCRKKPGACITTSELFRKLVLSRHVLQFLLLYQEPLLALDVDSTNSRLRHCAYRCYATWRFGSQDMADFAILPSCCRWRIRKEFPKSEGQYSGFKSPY
Type: cell-based
Design: The complete open reading frame of human P2X7 was amplified from Incyte clone 148057; expressed in transfected cells
Description: Following a 24-hr exposure to DNA, cells were trypsinized and re-seeded at low density in the presence of […] G418. After incubation for 2 weeks, isolated clones were selected with cloning cylinders and replated in […] G418. Cell clones were then expanded. Clones were screened for P2X7 by applying ATP and recording the resultant current using patch clamp electrophysiology.
U373 cells stably expressing P2X7 were used to screen drugs via a dye uptake assay. Cells were plated overnight on collagen coated 96-well plates at a density of 35,000 cells per well. The following day, culture media was replaced with Mg^++ and Ca^++-free Hank's balanced salt solution and various concentrations of test compounds ranging from 30 nM to 3 μM. Cells were then allowed to incubate with test compounds at 37° C. for 20 minutes. Following this incubation period YO-PRO-1 dye (Molecular Probes, Eugene, Oreg., final concentration 5 μM) and 2′-& 3′-O-(4-Benzolybenzoyl)-Adenosine 5′-triphosphate (Sigma Chemical, St Louis, Mo., final concentration 300 μM) were added to the cells sequentially. Cells were then incubated at 37° C. for 1.5 hours. […] Fluorescence in the presence of test substances was compared to that in the absence of test substances (control).
`Fc1ccc(CSC2=N[C@@H](c3ccccc3)[C@@H](c3ccccc3)N2)cc1F` [2-[(3,4-Difluorobenzyl)thio]-cis-4,5-diphenyl-4,5-dihydro-1H-imidazole hydrochloride] showed an IC50 of 461 nM.
`Fc1cccc(COCC2=N[C@@H](c3ccccc3)[C@@H](c3ccccc3)N2)c1` [2-[(3-Fluorobenzyloxy)methyl]-cis-4,5-diphenyl-4,5-dihydro-1H-imidazole hydrochloride] was tested, and the IC50 was 274 nM.
`Fc1cccc(OCC2=N[C@@H](c3cccc(F)c3)[C@@H](c3cccc(F)c3)N2)c1` [2-[(3-Fluorophenoxy)methyl]-cis-4,5-bis-(3-fluorophenyl)-4,5-dihydro-1H-imidazole] showed an IC50 of 316 nM.
In the case of `Fc1cccc(OCC2=N[C@@H](c3ccccc3)[C@@H](c3ccccc3)N2)c1` [2-[(3-Fluorophenoxy)methyl]-cis-4,5-diphenyl-4,5-dihydro-1H-imidazole trifluoroacetate], the IC50 is reported as 224 nM.
For `COc1cccc(CSC2=N[C@@H](c3ccccc3)[C@@H](c3ccccc3)N2)c1` [2-[(3-Methoxybenzyl)thio]-cis-4,5-diphenyl-4,5-dihydro-1H-imidazole hydrochloride], the IC50 was 987 nM.
With `Cc1cccc(COCC2=N[C@@H](c3ccccc3)[C@@H](c3ccccc3)N2)c1` [2-[(3-Methylbenzyloxy)methyl]-cis-4,5-diphenyl-4,5-dihydro-1H-imidazole hydrochloride] the IC50 was 415 nM.
`Fc1ccc(OCC2=N[C@@H](c3cccc(F)c3)[C@@H](c3cccc(F)c3)N2)cc1` [2-[(4-Fluorophenoxy)methyl]-cis-4,5-bis-(3-fluorophenyl)-4,5-dihydro-1H-imidazole] was tested, and the IC50 was 346 nM.
In the case of `Fc1ccc(OCC2=N[C@@H](c3ccccc3)[C@@H](c3ccccc3)N2)cc1` [2-[(4-Fluorophenoxy)methyl]-cis-4,5-diphenyl-4,5-dihydro-1H-imidazole trifluoroacetate], the IC50 is reported as 401 nM.
`c1ccc(CSCC2=N[C@@H](c3ccccc3)[C@@H](c3ccccc3)N2)cc1` [2-[(Benzylsulfanyl)methyl]-cis-4,5-diphenyl-4,5-dihydro-1H-imidazole trifluoroacetate] gave an IC50 of 583 nM.
`c1ccc([C@H]2NC(COC3CCCCCC3)=N[C@H]2c2ccccc2)cc1` [2-[(Cycloheptyloxy)methyl]-cis-4,5-diphenyl-4,5-dihydro-1H-imidazole trifluoroacetate] was tested, and the IC50 was 603 nM.
Molecule `c1ccc([C@H]2NC(COC3CCCCC3)=N[C@H]2c2ccccc2)cc1` [2-[(Cyclohexyloxy)methyl]-cis-4,5-diphenyl-4,5-dihydro-1H-imidazole trifluoroacetate] has an IC50 of 315 nM.
For `c1ccc([C@H]2NC(COC3CCCCCCC3)=N[C@H]2c2ccccc2)cc1` [2-[(Cyclooctyloxy)methyl]-cis-4,5-diphenyl-4,5-dihydro-1H-imidazole trifluoroacetate], the IC50 was 506 nM.
Work on `c1ccc(SCC2=N[C@@H](c3ccccc3)[C@@H](c3ccccc3)N2)cc1` [2-[(Phenylsulfanyl)methyl]-cis-4,5-diphenyl-4,5-dihydro-1H-imidazole trifluoroacetate] yielded an IC50 of 198 nM.
In the case of `c1ccc(C2N=C(C3Cc4ccccc4C3)NC2c2ccccc2)cc1` (centres unmarked) [2-indan-2-yl-4,5-diphenyl-4,5-dihydro-1H-imidazole trifluoroacetate], the IC50 is reported as 50 nM.
In the case of `c1ccc([C@H]2NC(CC3Cc4ccccc4C3)=N[C@H]2c2ccccc2)cc1` [2-indan-2-ylmethyl-cis-4,5-diphenyl-4,5-dihydro-1H-imidazole trifluoroacetate], the IC50 is reported as 240 nM.
`Fc1cc(CNC2=N[C@@H](c3ccccc3)[C@@H](c3ccccc3)N2)cc(F)c1F` [(cis-4,5-Diphenyl-4,5-dihydro-1H-imidazol-2-yl)-(3,4,5-trifluorobenzyl)amine hydrochloride] showed an IC50 of 77 nM.
For `Fc1cc(F)cc(CNC2=N[C@@H](c3ccccc3)[C@@H](c3ccccc3)N2)c1` [(cis-4,5-Diphenyl-4,5-dihydro-1H-imidazol-2-yl)-(3,5-difluorobenzyl)amine hydrochloride], the IC50 was 102 nM.
